Measurements published in patent publication US20260202298A1, “HIGH-THROUGHPUT MEASUREMENT OF P[…] PARTICLE COUNTS, DISTRIBUTIONS, AND COMPOSITION” (priority 2021, published 2026).

How the values were obtained:
[1] = tested on: XUd (WT1) or PR8 (WT2) influenza viruses; assay type: cell-based, influenza virus in MDCK cells; settings: at higher concentrations
[2] = tested on: A/PR8/34 or A/Ud/72 (with X31 or A/Aichi/68 HA) IAV; assay type: cell-based, influenza A virus in human lung epithelial cell line Calu3; settings: FIG. 12B, PR8 and XUd viruses

Row | SMILES | effect on virion yield [1] | size of individual virus particles [1] | virion aggregation [1] | virion yield vs. fraction of filamentous particles produced [2]
1 | CCOC(=O)C1=C[C@@H](OC(CC)CC)[C@H](NC(C)=O)[C@@H](N)C1 [oseltamivir] | reduces virion yield | remains enriched in spherical particles | induces virion aggregation | 
2 | COC(=O)OCOc1c2n(ccc1=O)N([C@@H]1c3ccccc3SCc3c1ccc(F)c3F)[C@@H]1COCCN1C2=O [baloxavir, baloxavir marboxil] |  |  |  | lower virion yields are associated with increased fraction of filamentous particles produced
